Data published in patent US4015002A, “1-Aryl-2-oxo-2,4,5,6,7,7a-hexahydro-indoles, salts, pharmaceutical compositions and methods of use” (Laboratoire Roger Bellon, priority 1974, dated 1977).
In brackets after ≈: the same amount, converted by molar mass. Like-named read-outs stand apart in the source and are kept apart here.

How the values were obtained:
[1] = tested on: isolated heart of the rabbit; assay: Cardiac action on the isolated heart of a rabbit (Langendorf preparation); details: for EC20: Oryctolagus cuniculus, direction arrow is a drawing
Procedure: (§1) This was examined according to known methods in the isolated auricle (Trevan preparation) and in the isolated heart of a rabbit (Langendorf preparation).
In the Langendorf preparation, the action of the compounds was determined from three parameters; the amplitude of contractions, coronary delivery, and rhythm. […] The results are indicated in Table 1; an arrow ↓ indicates a diminution, and an arrow ↑ an augmentation.

[2] = Toxicity, intravenous in the mouse; details: in vivo, i.v.
Procedure: The toxicities of the various compound were determined intravenously in the mouse.

anaethestized dog = assay: Action on femoral delivery, aortal pressure and cardiac rhythm in the anaesthetized dog; format: in vivo; details: for Aortal pressure, maximum variation in 30 minutes / Cardiac Rhythm, maximum variation in 30 minutes / Femoral Delivery, maximum variation in 30 minutes: i.v. perfusion over 5 min, dose 1/10 of mouse LD50, percent based on initial values; for Aortal pressure (in words) / Cardiac frequency (in words) / Vasodilator action (in words): anaesthetized dog, i.v.; for Vasodilator action (in words): 1/10 of mouse LD50
Procedure: This was investigated in an anaethestized dog, the compounds under test being administered by intraveneous perfusion (over 5 minutes). The various compounds under test were compared by administering all of them at a dose per kilogram corresponding to 1/10 of the mouse LD50 (I.V.).
Simultaneously were measured: variations of femoral delivery, aortal pressure, and cardiac rhythm. Table II indicates the maximum variations of these different parameters observed over the 30 minutes which followed administration of various compounds. These variations are expressed in percent based on the initial values.

isolated auricle = assay: Cardiac action on the isolated auricle (Trevan preparation): amplitude of contractions; details: arrows for diminution/increase are drawings, 0 = inactive, read-out: Action on the isolated auricle: minimum concentration producing a variation of 20% in amplitude of contractions
Procedure: as §1
Cardiac action of the compounds in question was evaluated according to the amplitude of contractions of the isolated auricle.

[3] = read-out: Amplitude of contractions: concentration producing a variation of 20%
[4] = read-out: Rhythm: concentration producing a variation of 20%
[5] = read-out: Coronary delivery: concentration producing a variation of 20%

| Compound | EC20 [1, 3] [mg/L] | EC20 [1, 4] [mg/L] | LD50 [2] [mg/kg] | Aortal pressure, maximum variation in 30 minutes (anaethestized dog) [%] | EC20 (isolated auricle) [mg/L] | Cardiac Rhythm, maximum variation in 30 minutes (anaethestized dog) [%] | Coronary delivery (in words) [1] | EC20 [1, 5] [mg/L] | Aortal pressure (in words) (anaethestized dog) | Cardiac frequency (in words) (anaethestized dog) | Vasodilator action (in words) (anaethestized dog) | Femoral Delivery, maximum variation in 30 minutes (anaethestized dog) [%] |
| --- | --- | --- | --- | --- | --- | --- | --- | --- | --- | --- | --- | --- |
| CN(C)CCCOc1ccc(N2C(=O)C=C3CCCCC32)cc1 (centres unmarked) [Example 8, 1-[4-(3-Dimethylaminopropoxy)-phenyl]-2-oxo-2,4,5,6,7,7 a-hexahydro-indole] | 1 (≈ 3.18 µM) | 5 (≈ 15.9 µM) | 85 | 0 | 10 (≈ 31.8 µM) | – | – | – | – | – | – | – |
| CC(C)N(CCOc1ccc(N2C(=O)C=C3CCCCC32)cc1)C(C)C (centres unmarked) [Example 7, 1-[4-(2Diisopropylaminoethoxy)-phenyl]-2-oxo-2,4,5,6,7,7a-hexahydro-indole] | 1 (≈ 2.8 µM) | 20 (≈ 56.1 µM) | 85 | 0 | 10 (≈ 28 µM) | 0 | – | – | – | – | – | – |
| O=C1C=C2CCCCC2N1c1cccc(OCCN2CCOCC2)c1 (centres unmarked) [Example 9, 1-[3-(2-Morpholinoethoxy)-phenyl]-2-oxo-2,4,5,6,7,7a-hexahydro-indole] | 1 (≈ 2.92 µM) | – | 170 | 0 | 50 (≈ 146 µM) | – | augmented | 20 (≈ 58.4 µM) | – | – | – | – |
| CCN(CC)CCOc1cccc(N2C(=O)C=C3CCCCC32)c1 (centres unmarked) [Example 11, 1-[3-(2-Diethylaminoethoxy)-phenyl]-2-oxo-2,4,5,6,7,7a-hexahydro-indole] | 2 (≈ 6.09 µM) | 10 (≈ 30.4 µM) | 90 | 0 | 10 (≈ 30.4 µM) | – | – | – | without modifying aortal pressure | without modifying aortal pressure or cardiac frequency | clearly vasodilators | – |
| CN(C)CCOc1ccc(N2C(=O)C=C3CCCCC32)cc1 (centres unmarked) [Example 5, 1-[4-(2-Dimethylaminoethoxy)-phenyl]-2-oxo-2,4,5,6,7,7a-hexahydro-indole] | 1 (≈ 3.33 µM) | 10 (≈ 33.3 µM) | 90 | 0 | 50 (≈ 166 µM) | – | – | 20 (≈ 66.6 µM) | – | – | – | 0 |
| O=C1C=C2CCCCC2N1c1cccc(OCCN2CCCCC2)c1 (centres unmarked) [Example 10, 1-[3-(2-piperidinoethoxy)-phenyl]-2-oxo-2,4,5,6,7,7a-hexahydro-indole] | 1 (≈ 2.94 µM) | 20 (≈ 58.7 µM) | 130 | – | 5 (≈ 14.7 µM) | – | – | 20 (≈ 58.7 µM) | hypotension | tachycardia | vasodilators | – |
| O=C1C=C2CCCCC2N1c1ccc(OCCN2CCOCC2)c(Cl)c1 (centres unmarked) [Example 17, 1-[3-Chloro-4-(2-morpholinoethoxy)-phenyl]-2-oxo-2,4,5,6,7,7a-hexahydro-indole] | 1 (≈ 2.65 µM) | 20 (≈ 53.1 µM) | 120 | 0 | – | – | augmented | 50 (≈ 133 µM) | – | – | – | – |
| O=C1C=C2CCCCC2N1c1ccc(OCCN2CCCCC2)c(Cl)c1 (centres unmarked) [Example 14, 1-[3-chloro-4-(2-piperidinoethoxy)-phenyl]-2-oxo-2,4,5,6,7,7a-hexahydro-indole] | 1 (≈ 2.67 µM) | 20 (≈ 53.3 µM) | 25 | 0 | 10 (≈ 26.7 µM) | – | – | – | without modifying aortal pressure | without modifying aortal pressure or cardiac frequency | clearly vasodilators | – |
| O=C1C=C2CCCCC2N1c1ccc(OCCN2CCCCC2)cc1 (centres unmarked) [Example 6, 1-[4-(2-Piperidinoethoxy)-phenyl]-2-oxo-2,4,5,6,7,7a-hexahydro-indole] | 1 (≈ 2.94 µM) | 20 (≈ 58.7 µM) | 40 | 0 | 10 (≈ 29.4 µM) | – | – | 20 (≈ 58.7 µM) | – | – | – | 0 |
| CN(C)CCOc1cccc(N2C(=O)C=C3CCCCC32)c1 (centres unmarked) [Example 12, 1-[3-(2-Dimethylaminoethoxy)-phenyl]-2-oxo-2,4,5,6,7,7a-hexahydro-indole] | 1 (≈ 3.33 µM) | 5 (≈ 16.6 µM) | 27.5 | – | 10 (≈ 33.3 µM) | – | – | – | hypotension | tachycardia | vasodilators | – |
| CCN(CC)CCOc1ccc(N2C(=O)C=C3CCCCC32)cc1 (centres unmarked) [Example 1, 1-[4-(2-diethylaminoethoxy)-phenyl] -2-oxo-2,4,5,6,7,7a-hexahydro-indole] | 5 (≈ 15.2 µM) | – | 150 | 0 | 20 (≈ 60.9 µM) | 0 | – | – | – | – | – | – |
| CC(C)N(CCOc1cccc(N2C(=O)C=C3CCCCC32)c1)C(C)C (centres unmarked) [Example 13, 1-[3-(2-Diisopropylaminoethoxy)-phenyl]-2-oxo-2,4,5,6,7,7a-hexahydro-indole] | 1 (≈ 2.8 µM) | 20 (≈ 56.1 µM) | 55 | – | 5 (≈ 14 µM) | – | – | – | hypertensives | – | – | – |
| CC(C)N(CCOc1ccc(N2C(=O)C=C3CCCCC32)cc1Cl)C(C)C (centres unmarked) [Example 18, 1-[3-Chloro-4-(2-diisopropylaminoethoxy)-phenyl]-2-oxo-2,4,5,6,7,7a-hexahydro-indole] | 1 (≈ 2.56 µM) | – | 150 | – | 5 (≈ 12.8 µM) | – | – | – | hypertensives | – | – | – |
| CCN(CC)CCOc1ccc(N2C(=O)C=C3CCCCC32)cc1Cl (centres unmarked) [Example 16, 1-[3-Chloro-4-(2-diethylaminoethoxy)-phenyl]-2-oxo-2,4,5,6,7,7a-hexahydro-indole] | 1 (≈ 2.76 µM) | 1 (≈ 2.76 µM) | 22 | 0 | 5 (≈ 13.8 µM) | – | – | – | – | – | – | – |
| CN(C)CCOc1ccc(N2C(=O)C(c3ccccc3)=C3CCCCC32)cc1 (centres unmarked) [Example 19, 1-[4-(2-Dimethylaminoethoxy)-phenyl]-2-oxo-3-phenyl-2,4,5,6,7,7a-hexahydro-indole] | 1 (≈ 2.66 µM) | 10 (≈ 26.6 µM) | 10 | – | 20 (≈ 53.1 µM) | – | augmented | 5 (≈ 13.3 µM) | – | – | – | 0 |
| CCN(CC)CCOc1ccc(N2C(=O)C(c3ccccc3)=C3CCCCC32)cc1 (centres unmarked) [Example 20, 1-[4-(2-diethylaminoethoxy)-phenyl]-2-oxo-3-phenyl-2,4,5,6,7,7a-hexahydro-indole] | 1 (≈ 2.47 µM) | 5 (≈ 12.4 µM) | 38 | 0 | 2 (≈ 4.94 µM) | – | augmented | 5 (≈ 12.4 µM) | – | – | – | 0 |
| O=C1C(c2ccccc2)=C2CCCCC2N1c1ccc(OCCN2CCOCC2)cc1 (centres unmarked) [Example 21, 1-[4-(2-morpholinoethoxy)-phenyl]-2-oxo-3-phenyl-2,4,5,6,7,7a-hexahydro-indole] | 1 (≈ 2.39 µM) | 10 (≈ 23.9 µM) | 55 | 0 | 20 (≈ 47.8 µM) | 0 | augmented | 2 (≈ 4.78 µM) | – | – | – | – |
